According to PMC10920384 (Heliyon, 2024):
Where two headings read alike, the source gives them in different places. Marks after values point to notes of the source that are not given here.

What was measured:
[1] = biological target: dipeptidyl peptidase-IV (DPP-IV) from porcine kidney (Sus scrofa, UniProt P22411); assay: Dipeptidyl peptidase-IV; type: biochemical; details: for inhibition at 50 µg/mL: read-out: % Inhibition at 50 μg/mL (DPP-IV)
[2] = tested on: α-glucosidase from Saccharomyces cerevisiae; assay: α-Glucosidase inhibitory assay; type: biochemical; details: mean ± SD, N = 3

Chain of dipeptidyl peptidase-IV (DPP-IV) from porcine kidney (P22411 whole entry): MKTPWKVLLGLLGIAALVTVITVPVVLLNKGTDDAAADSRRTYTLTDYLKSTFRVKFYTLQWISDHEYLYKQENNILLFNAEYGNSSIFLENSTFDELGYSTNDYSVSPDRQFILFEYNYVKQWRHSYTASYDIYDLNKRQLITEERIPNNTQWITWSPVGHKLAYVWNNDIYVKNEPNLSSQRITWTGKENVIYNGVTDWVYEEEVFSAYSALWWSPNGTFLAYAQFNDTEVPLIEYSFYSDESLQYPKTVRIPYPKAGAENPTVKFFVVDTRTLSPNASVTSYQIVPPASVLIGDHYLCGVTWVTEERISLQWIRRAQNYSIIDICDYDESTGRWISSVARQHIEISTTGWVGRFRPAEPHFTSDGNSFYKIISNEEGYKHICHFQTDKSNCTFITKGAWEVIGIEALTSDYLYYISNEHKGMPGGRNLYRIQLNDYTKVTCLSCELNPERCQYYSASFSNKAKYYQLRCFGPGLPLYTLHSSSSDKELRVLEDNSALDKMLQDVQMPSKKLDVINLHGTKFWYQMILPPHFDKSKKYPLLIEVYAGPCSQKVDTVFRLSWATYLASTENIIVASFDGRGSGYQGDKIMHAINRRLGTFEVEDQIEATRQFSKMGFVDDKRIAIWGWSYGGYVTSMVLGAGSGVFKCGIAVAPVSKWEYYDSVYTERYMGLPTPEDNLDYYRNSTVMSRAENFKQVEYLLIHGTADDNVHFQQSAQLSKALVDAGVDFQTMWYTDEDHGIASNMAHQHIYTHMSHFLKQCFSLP

inhibition at 50 µg/mL [1] [%] | % Inhibition at 10 μg/mL (α-glucosidase) [2] [%] | IC50 (α-glucosidase inhibition) [2] [µg/mL] | % Inhibition at 50 μg/mL (DPP-IV) ([1]; mean ± SD, N = 3) | IC50 ([1]; read-out: IC50 (DPP-IV inhibition), mean ± SD, N = 3) [µM] | IC50 [1] [µM] | IC50 (DPP-IV inhibition) ([1]; mean ± SD, N = 3) [µg/mL] | SMILES
77.6 ± 1.18 | – | – | – | – | – | – | CC[C@H](C)[C@H](N)C(=O)N1CCC[C@H]1C(=O)N[C@H](C(=O)O)[C@@H](C)CC [Diprotin A, diprotin A, reference compound]
– | 38.04 ± 1.10 | >10 | 97.37 ± 1.01 ^a % | 28.7 | – | – | COc1cc(OC)c(C(=O)/C=C/c2ccccc2)c(O)c1O [Compound 4, 2′,3′-dihydroxy-4′,6′-dimethoxychalcone]
30.4 ± 1.9 | 37.30 ± 1.03 | >10 | – | – | > 195 | – | O=C1C[C@@H](c2ccccc2)Oc2cc(O)cc(O)c21 [Compound 8, pinocembrin]
– | 28.13 ± 1.46 | >10 | 24.54 ± 2.38% | – | – | >50 | COc1cc2c(c(O)c1OC)C(=O)C[C@@H](c1ccccc1)O2 [Compound 10, onysilin]
27.1 ± 0.73 | 18.40 ± 1.39 | >10 | – | – | > 156 | – | CC(C)=CCCC(C)=CCCC(C)=CCc1c[nH]c2ccccc12 [Compound 9, 3-Farnesyl indole]
27.8 ± 2.96 | 34.57 ± 1.43 | >10 | – | – | > 166 | – | COc1cc(OC)c2c(c1O)OC(c1ccccc1)CC2=O (stereo not shown) [Compound 7, 8-hydroxy-5,7-dimethoxyflavanone]
41.2 ± 1.03 | 27.31 ± 1.04 | >10 | – | – | > 197 | – | O=c1cc(-c2ccccc2)oc2cc(O)cc(O)c12 [Compound 5, chrysin]
